The text below walks through data of patent US10179929B2, “Water-soluble activatable molecular probes, intermediates for the synthesis thereof and associated detection methods” (ECOLE NORMALE SUPERIEURE DE LYON, priority 2014, dated 2019).

Each structure is given as a SMILES string.

The data set in a line: Evaluation of hydrosolubility: presence or absence of precipitate in buffered solutions. The settings on record: for hydrosolubility (presence or absence of precipitate): diluted from DMSO stock solution.

Experimental: The hydrosolubility of the compounds was evaluated as a function of the presence or absence of precipitate in buffered solutions of the compounds in question at different concentrations.
These stock solutions were then diluted in a commercial PBS buffer in order to obtain a range of final concentrations between 1 mM and 50 μM. A compound was declared to be insoluble if a precipitate appeared and persisted after dilution.

Take `Cc1cc(=O)oc2cc(NC(=O)[C@@H](N)CC(C)C)ccc12` [AMC-Leu, reference compound]: the “appearance of stock solution in DMSO” value (100 mM in DMSO) was “cloudy solution”.

Take `Cc1cc(=O)oc2cc(OC(=O)N3CCNCC3CNC(=O)Cc3ccccc3)ccc12` (centres unmarked) [Compound 12, 4-methyl-2-oxo-2H-chromen-7-yl 2-((2-phenylacetamido)methyl)piperazine-1-carboxylate]: the “hydrosolubility (presence or absence of precipitate)” value (from here on “hydrosolubility”) is “soluble” (50 μM in PBS buffer); “soluble” (100 μM in PBS buffer); “soluble” (250 μM in PBS buffer); “soluble” (500 μM in PBS buffer); “soluble” (1 mM in PBS buffer).

On to `Cc1cc(=O)oc2cc(OC(=O)N3CCCCC3CNC(=O)Cc3ccccc3)ccc12` (centres unmarked) [Compound 15, 4-methyl-2-oxo-2H-chromen-7-yl 2-((2-phenylacetamido)methyl)piperidine-1-carboxylate, reference compound], for which the “hydrosolubility” value by setting is: (50 μM in PBS buffer) “insoluble”; (100 μM in PBS buffer) “insoluble”; (250 μM in PBS buffer) “insoluble”; (500 μM in PBS buffer) “insoluble”; (1 mM in PBS buffer) “insoluble”.

Consider `CCCCCCCC(=O)OCC1CNCCN1C(=O)Oc1ccc2c(C)cc(=O)oc2c1` (centres unmarked) [Compound 21, 4-methyl-2-oxo-2H-chromen-7-yl 2-((octanoyloxy)methyl)piperazine-1-carboxylate], for which the “hydrosolubility” value (50 μM in PBS buffer) is “soluble”; the “hydrosolubility” value (100 μM in PBS buffer) is “soluble”; the “hydrosolubility” value (250 μM in PBS buffer) was “soluble”; the “hydrosolubility” value (500 μM in PBS buffer) was “insoluble”; the “hydrosolubility” value (1 mM in PBS buffer) was “insoluble”.

Consider `CCCCCCCC(=O)OCC1CN(CCCCS(=O)(=O)O)CCN1C(=O)Oc1ccc2c(C)cc(=O)oc2c1` (centres unmarked) [Compound 22, 4-(4-(((4-methyl-2-oxo-2H-chromen-7-yl)oxy)carbonyl)-3-((octanoyloxy)methyl)piperazin-1-yl)butane-1-sulfonic Acid], for which the “hydrosolubility” value is given as “soluble” (50 μM in PBS buffer); “soluble” (100 μM in PBS buffer); “soluble” (250 μM in PBS buffer); “soluble” (500 μM in PBS buffer); “soluble” (1 mM in PBS buffer).

In the case of `CCCCCCCC(=O)OCC1CCCCN1C(=O)Oc1ccc2c(C)cc(=O)oc2c1` (centres unmarked) [Compound 27, 4-methyl-2-oxo-2H-chromen-7-yl 2-((octanoyloxy)methyl)piperidine-1-carboxylate, reference compound], the “hydrosolubility” value (50 μM in PBS buffer) is “soluble”; the “hydrosolubility” value (100 μM in PBS buffer) was “soluble”; the “hydrosolubility” value (250 μM in PBS buffer) is recorded as “insoluble”; the “hydrosolubility” value (500 μM in PBS buffer) is listed as “insoluble”; the “hydrosolubility” value (1 mM in PBS buffer) is “insoluble”.

As for `COCCOCCOCCn1cc(CCC(=O)N2CCN(C(=O)Oc3ccc4c(C)cc(=O)oc4c3)C(CNC(=O)Cc3ccccc3)C2)nn1` (centres unmarked) [Compound 31, 4-methyl-2-oxo-2H-chromen-7-yl 4-(3-(1-(2-(2-(2-methoxyethoxy)ethoxy)ethyl)-1H-1,2,3-triazol-4-yl)propanoyl)-2-((2-phenylacetamido)methyl)piperazine-1-carboxylate], the “hydrosolubility” value (50 μM in PBS buffer) was “soluble”; the “hydrosolubility” value (100 μM in PBS buffer) is on record as “soluble”; the “hydrosolubility” value (250 μM in PBS buffer) is “soluble”; the “hydrosolubility” value (500 μM in PBS buffer) is “soluble”; the “hydrosolubility” value (1 mM in PBS buffer) is recorded as “soluble”.

In the case of `COCCOCCOCCn1cc(CCC(=O)N2CCN(C(=O)Oc3ccc([N+](=O)[O-])cc3)C(CNC(=O)Cc3ccccc3)C2)nn1` (centres unmarked) [Compound 36, 4-nitrophenyl 4-(3-(1-(2-(2-(2-methoxyethoxy)ethoxy)ethyl)-1H-1,2,3-triazol-4-yl)propanoyl)-2-((2-phenylacetamido)methyl)piperazine-1-carboxylate], the “hydrosolubility” value runs as follows: (50 μM in PBS buffer) “soluble”; (100 μM in PBS buffer) “soluble”; (250 μM in PBS buffer) “soluble”; (500 μM in PBS buffer) “soluble”; (1 mM in PBS buffer) “soluble”.

On to `COCCOCCOCCn1cc(CCC(=O)N2CCN(C(=O)Oc3ccc(Cl)cc3-c3nc4ccc(Cl)cc4c(=O)[nH]3)C(CNC(=O)Cc3ccccc3)C2)nn1` (centres unmarked) [Compound 39, 4-chloro-2-(6-chloro-4-oxo-3,4-dihydroquinazolin-2-yl)phenyl 4-(3-(1-(2-(2-(2-methoxyethoxy)ethoxy)ethyl)-1H-1,2,3-triazol-4-yl)propanoyl)-2-((2-phenylacetamido)methyl)piperazine-1-carboxylate], for which the “hydrosolubility” value is given as “soluble” (50 μM in PBS buffer); “soluble” (100 μM in PBS buffer); “soluble” (250 μM in PBS buffer); “insoluble” (500 μM in PBS buffer); “insoluble” (1 mM in PBS buffer).
